Measurements published in a compilation of properties of binary mixtures (doi:10.1016/j.jct.2020.106330).

Experiment: xn = mol fraction of the nth substance listed
Conditions: 101.3 kPa

CN1CCCC1=O + CCCC[n+]1ccn(C)c1.F[P-](F)(F)(F)(F)F
x2 = 0
Conditions | speed of sound [m/s]
308.15 K | 1505
313.15 K | 1485.7
318.15 K | 1466.7
323.15 K | 1447.8

CCCC[n+]1ccn(C)c1.F[P-](F)(F)(F)(F)F + CN1CCCC1=O
speed of sound [m/s]
Conditions | 303.15 K | 308.15 K | 313.15 K | 318.15 K | 323.15 K
x1 = 0.0513 | 1522.2 | 1503.9 | 1485.8 | – | 1450.1
x1 = 0.1028 | 1516.1 | 1498.8 | 1481.6 | 1464.5 | 1447.6
x1 = 0.1422 | 1510 | 1493.2 | 1476.6 | 1460.1 | 1443.8
x1 = 0.1894 | – | 1486 | 1470 | 1454.1 | 1438.4
x1 = 0.2988 | – | 1470.9 | 1456 | 1441.3 | 1426.7
x1 = 0.499 | 1460.7 | 1447.2 | 1433.9 | – | 1407.6
x1 = 0.591 | – | 1438.8 | 1425.9 | – | 1400.6
x1 = 0.6991 | – | – | 1419.4 | 1407.1 | –
x1 = 0.812 | 1437.9 | 1425.8 | 1413.8 | 1402 | 1390.3
x1 = 0.8415 | 1436.6 | 1424.5 | 1412.6 | 1400.9 | 1389.3
x1 = 0.8812 | 1434.9 | – | 1411.2 | 1399.6 | 1388.1
x1 = 0.9423 | 1432.9 | 1421.1 | – | 1398 | –
x1 = 1 | – | 1419.8 | 1408.2 | 1396.8 | 1385.6
